According to PubChem BioAssay (NCI):
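Briefly, cells in 96-well plates were exposed to five compound concentrations for 48 h, and endpoints were estimated by linear interpolation. The concentration for full growth arrest is given as TGI.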

Assays:
Experiment in all cases: DTP human tumour cell line panel, 48 h
[1] = system: 786-0 renal
[2] = system: A498 renal
[3] = system: A549 NSCLC
[4] = system: ACHN renal
[5] = system: BT-549 breast
[6] = system: CCRF-CEM leukemia
[7] = system: COLO 205 colon
[8] = system: DU-145 prostate
[9] = system: EKVX NSCLC
[10] = system: HCC-2998 colon
[11] = system: HCT-116 colon
[12] = system: HCT-15 colon
[13] = system: HL-60(TB) leukemia
[14] = system: HOP-62 NSCLC
[15] = system: HOP-92 NSCLC
[16] = system: HS 578T breast
[17] = system: HT29 colon
[18] = system: IGROV1 ovarian
[19] = system: K-562 leukemia
[20] = system: KM12 colon
[21] = system: M14 melanoma
[22] = system: MCF7 breast
[23] = system: MDA-MB-231 breast
[24] = system: MDA-MB-435
[25] = system: MDA-N
[26] = system: MOLT-4 leukemia
[27] = system: NCI-H226 lung
[28] = system: NCI-H23 lung
[29] = system: NCI-H460 lung
[30] = system: NCI/ADR-RES ovarian
[31] = system: OVCAR-3 ovarian
[32] = system: OVCAR-4 ovarian
[33] = system: OVCAR-5 ovarian
[34] = system: OVCAR-8 ovarian
[35] = system: RPMI-8226 leukemia
[36] = system: RXF 393 renal
[37] = system: SF-268 CNS
[38] = system: SF-295 CNS
[39] = system: SF-539 CNS
[40] = system: SK-MEL-2 melanoma
[41] = system: SK-MEL-28 melanoma
[42] = system: SK-MEL-5 melanoma
[43] = system: SK-OV-3 ovarian
[44] = system: SN12C renal
[45] = system: SNB-19 CNS
[46] = system: SNB-75 CNS
[47] = system: SW-620 colon
[48] = system: T-47D breast
[49] = system: TK-10 renal
[50] = system: U251 CNS
[51] = system: UACC-257 melanoma
[52] = system: UACC-62 melanoma
[53] = system: UO-31 renal

Measured: TGI

O=C(Cc1ccccc1)NN1C(=O)/C(=C\c2ccc(O)cc2)SC1=Nc1ccccc1
> 100 µM: all assays above
